Data taken from US11771697B2, “Small molecule degraders of polybromo-1 (PBRM1)” (DANA-FARBER CANCER INSTITUTE, INC., priority 2018, dated 2023).

Assays:
Format in all cases: cell-based
[1] = target: T1, CRBN (Homo sapiens, UniProt Q96SW2); test: Cellular CRBN binding assay (BRD4BD2-GFP/mCherry reporter, competition with 100 nM dBET6); details: GFP/RFP ratio, Flip-In 293 cells expressing BRD4BD2-GFP, 5 hours
T1 construct: Cells stably expressing BRD4BD2-GFP with mCherry reporter were seeded; endogenous in cells; host or cells: Flip-In 293 cells stably expressing BRD4BD2-eGFP-P2A-mCherry
Protocol: (§1) BRD4BD2 were subcloned into mammalian pcDNA5/FRT Vector (Ampicillin and Hygromycin B resistant) modified to contain MCS-eGFP-P2A-mCherry. Stable cell lines expressing eGFP-protein fusion and mCherry reporter were generated using the Flip-In™ 293 system. Plasmid (0.3 μg) and pOG44 (4.7 μg) DNA were preincubated in 100 of Opti-MEM I (Gibco™, Life Technologies) media containing 0.05 mg/ml Lipofectamine® 2000 (Invitrogen) for 20 minutes and added to Flip-In™ 293 cells containing 1.9 ml of DMEM media (Gibco™, Life Technologies) per well in a 6-well plate format (Falcon, 353046). Cells were propagated after 48 hours and transferred into a 10 cm^2 plate (Corning, 430165) in DMEM media containing 50 μg/ml of Hygromycin B (REF 10687010, Invitrogen) as a selection marker. Following a 2-3 passage cycle, FACS (FACSAria II, BD) was used to enrich for cells expressing eGFP and mCherry.
Cells stably expressing BRD4BD2-GFP with mCherry reporter were seeded at 30-50% confluency in 384 well plates (3764, Corning) with 50 μl FluoroBrite DMEM media (Gibco™, A18967) containing 10% FBS per well a day before compound treatment. Compounds and 100 nM dBET6 were dispensed using D300e Digital Dispenser (HP) normalized to 0.5% DMSO and incubated with cells for 5 hours. The assay plate was imaged immediately using Acumen eX3/HCl (TTPLabtech) High Content Imager with 488 nm and 561 nm lasers in […] grid per well format. The resulting images were analyzed using CellProfiler (Carpenter, et al., Genome Biol. 7:R100 PIMD 17076895 (2006)).

[2] = target: T2, PBRM1 (Homo sapiens, UniProt Q86U86); test: Kelly cell PBRM1 Western blot for cellular degradation of proteins; details: Kelly cells; relative to GAPDH, compared to DMSO
T2 construct: near complete degradation of endogenous PBRM1; endogenous in cells; host or cells: Kelly cells
Protocol: Kelly cells were treated with compounds as indicated and incubated for 6 or 24 hours. Samples were run on 4-20% or Any kD™ SDS-PAGE Gels (Bio-Rad), and transferred to PVDF membranes using the iBlot 2.0 dry blotting system (Thermo-Fisher Scientific). Membranes were blocked with LI-COR blocking solution (LI-COR), and incubated with primary antibodies overnight, followed by three washes in LI-COR blocking solution and incubation with secondary antibodies for one hour in the dark. After three final washes, the membranes were imaged on a LI-COR fluorescent imaging station (LI-COR). Antibodies used: anti-PBRM1 at 1:500 dilution (Cell Signaling, clone D3F70), anti-GAPDH at 1:10,000 dilution (G8795, Sigma), IRDye 680 Donkey anti-mouse at 1:10,000 dilution (926-68072, LI-COR).

[3] = target: T3, PBRM1 PB5 (Homo sapiens, UniProt Q86U86); test: PBRM1 PB5 GFP/RFP degradation assay (flow cytometry reporter assay); details: 5 hours, FIG. 3A-3F
Protocol: as §1, with “PBRM1 PB5 was” for “BRD4BD2 were”, “[…])” for “μg)”, “Lipofectamine” for “Lipofectamine®”
Cells were seeded at 30-50% confluency in either 24, 48 or 96 well plates (3524, 3548, 3596, respectively, Costar) a day before compound treatment. Titrated compounds were incubated with cells for 5 hours following trypsinization and resuspension in DMEM media, transferred into 96-well plates (353910, Falcon) and analyzed by flow cytometer (guava easyCyte HT, Millipore). Signal from minimal 3000 events per well was acquired and the eGFP and mCherry florescence were monitored. Data was analyzed using FlowJo® (FlowJo, LLC). Forward and side scatter outliers, frequently associated with cell debris, were removed leaving >90% of total cells, followed by removal of eGFP and mCherry signal outliers, leaving 88-90% of total cells creating the set used for quantification. The eGFP protein abundance relative to mCherry was then quantified as a ten-fold amplified ratio for each individual cell using the formula: 10×eGFP/mCherry. The median of the ratio was then calculated per set, normalized to the median of the DMSO ratio.
The assay described in Example 16 was repeated, using compounds 3-8 and the control (“negative compound” (G)).

[4] = target: T3, PBRM1 PB5; test: Imaging based PBRM1 PB5 GFP/RFP degradation assay; details: after 3 h of incubation; for degradation of PBRM1 PB5: FIG. 3H-3J
Protocol: Cells stably expressing PBRM1 PB5 in Example 16, were seeded at 30-50% confluency in 384 well plates (3764, Corning) with 50 μL FluoroBrite DMEM media (Gibco, A18967) containing 10% FBS per well a day before compound treatment. […] The assay plate was imaged immediately using Acumen eX3/HCl (TTPLabtech) High Content Imager with 488 nm and 561 nm lasers in […] grid per well format. The resulting images were analyzed using CellProfiler (Carpenter et al., Genome Biol. 7R100 PIMD 17076895 (2006)). A series of image analysis steps (‘image analysis pipeline’) was constructed.
The CellProfiler pipeline steps were as follows. First, the red and green channels were aligned and cropped to target the middle of each well (to avoid analysis of heavily clumped cells at the edges), and a background illumination function was calculated for both red and green channels of each well individually and subtracted to correct for illumination variations across the 384-well plate from various sources of error. An additional step was then applied to the green channel to suppress the analysis of large auto fluorescent artifacts and enhance the analysis of cell specific fluorescence by way of selecting for objects under a given size, 30 A.U., and with a given shape, speckles. Cells that were mCherry-positive were then identified in the red channel filtering for objects between 8-60 pixels in diameter and using intensity to distinguish between clumped objects. The green channel was then segmented into GFP positive and negative areas and objects were labeled as GFP positive if at least 40% of it overlapped with a GFP positive area. The fraction of GFP-positive cells/mCherry-positive cells (GFP/mCherry ratio) in each well was then calculated, and the green and red images were rescaled for visualization. The GFP/mCherry ratio was normalized to DMSO visualized in GraphPad Prism 7.

Q: What does the source list for Nc1nnc(-c2ccccc2O)cc1N1CCN(C(=O)CCOCCNc2cccc3c2CN(C2CCC(=O)NC2=O)C3=O)CC1 (centres unmarked) [Compound 1, 3-(4-((2-(3-(4-(3-amino-6-(2-hydroxyphenyl)pyridazin-4-yl)piperazin-1-yl)-3-oxopropoxy)ethyl)amino)-1-oxoisoindolin-2-yl)piperidine-2,6-dione]?
A: IC50 [1]: 30500 nM; degradation of PBRM1 (Western blot, FIG. 4) [2]: degradation of PBRM1

Q: For Nc1nnc(-c2ccccc2O)cc1N1CCN(C(=O)CCOCCOCCNc2cccc3c2CN(C2CCC(=O)NC2=O)C3=O)CC1 (centres unmarked) [Compound 2, 3-(4-((2-(2-(3-(4-(3-amino-6-(2-hydroxyphenyl)pyridazin-4-yl)piperazin-1-yl)-3-oxopropoxy)ethoxy)ethyl)amino)-1-oxoisoindolin-2-yl)piperidine-2,6-dione], which IC50 [1] is on record?
A: 20900 nM

Q: How did the IC50 [1] turn out when Nc1nnc(-c2ccccc2O)cc1N1CCN(C(=O)CCCCCCCCOc2cccc3c2C(=O)N(C2CCC(=O)NC2=O)C3=O)CC1 (centres unmarked) [Compound 3, 4-((9-(4-(3-amino-6-(2-hydroxyphenyl)pyridazin-4-yl)piperazin-1-yl)-9-oxononyl)oxy)-2-(2,6-dioxopiperidin-3-yl)isoindoline-1,3-dione] was run?
A: 162 nM

Q: What about the DC50 [3] of the same compound?
A: 2.86 nM

Q: How did the DC50 [3] turn out when Nc1nnc(-c2ccccc2O)cc1N1CCN(C(=O)COc2cccc3c2C(=O)N(C2CCC(=O)NC2=O)C3=O)CC1 (centres unmarked) [Compound 4, 4-(2-(4-(3-amino-6-(2-hydroxyphenyl)pyridazin-4-yl)piperazin-1-yl)-2-oxoethoxy)-2-(2,6-dioxopiperidin-3-yl)isoindoline-1,3-dione] was run?
A: 21.8 nM

Q: With Nc1nnc(-c2ccccc2O)cc1N1CCN(C(=O)CCCCCCCCCCOc2cccc3c2C(=O)N(C2CCC(=O)NC2=O)C3=O)CC1 (centres unmarked) [Compound 5, 4-((11-(4-(3-amino-6-(2-hydroxyphenyl)pyridazin-4-yl)piperazin-1-yl)-11-oxoundecyl)oxy)-2-(2,6-dioxopiperidin-3-yl)isoindoline-1,3-dione] as the compound, how does the DC50 [3] read?
A: 3.64 nM

Q: Nc1nnc(-c2ccccc2O)cc1N1CCN(C(=O)CCCCCCCOc2cccc3c2C(=O)N(C2CCC(=O)NC2=O)C3=O)CC1 (centres unmarked) [Compound 6, 4-((8-(4-(3-amino-6-(2-hydroxyphenyl)pyridazin-4-yl)piperazin-1-yl)-8-oxooctyl)oxy)-2-(2,6-dioxopiperidin-3-yl)isoindoline-1,3-dione] was tested. Which DC50 [3] did it give?
A: 6.42 nM

Q: Nc1nnc(-c2ccccc2O)cc1N1CCN(C(=O)CCCCCCOc2cccc3c2C(=O)N(C2CCC(=O)NC2=O)C3=O)CC1 (centres unmarked) [Compound 7, 4-((7-(4-(3-amino-6-(2-hydroxyphenyl)pyridazin-4-yl)piperazin-1-yl)-7-oxoheptyl)oxy)-2-(2,6-dioxopiperidin-3-yl)isoindoline-1,3-dione] was tested. Which DC50 [3] did it give?
A: 6.35 nM

Q: Which DC50 [3] does the source give for Nc1nnc(-c2ccccc2O)cc1N1CCN(C(=O)CCCCCCCCCOc2cccc3c2C(=O)N(C2CCC(=O)NC2=O)C3=O)CC1 (centres unmarked) [Compound 8, 4-((10-(4-(3-amino-6-(2-hydroxyphenyl)pyridazin-4-yl)piperazin-1-yl)-10-oxodecyl)oxy)-2-(2,6-dioxopiperidin-3-yl)isoindoline-1,3-dione] here?
A: 3.9 nM

Q: With Cc1ncsc1-c1ccc([C@H](C)NC(=O)[C@@H]2C[C@@H](O)CN2C(=O)[C@@H](NC(=O)CCCCCCCCN2CCN(c3cc(-c4ccccc4O)nnc3N)CC2)C(C)(C)C)cc1 [Compound 11, (2S,4R)-1-((S)-2-(9-(4-(3-amino-6-(2-hydroxyphenyl)pyridazin-4-yl)piperazin-1-yl)nonanamido)-3,3-dimethylbutanoyl)-4-hydroxy-N—((S)-1-(4-(4-methylthiazol-5-yl)phenyl)ethyl)pyrrolidine-2-carboxamide] as the compound, how does the “degradation of PBRM1 PB5” value [4] read?
A: less effective

Q: With Cc1ncsc1-c1ccc([C@H](C)NC(=O)[C@@H]2C[C@@H](O)CN2C(=O)[C@@H](NC(=O)CCCCCCCC(=O)N2CCN(c3cc(-c4ccccc4O)nnc3N)CC2)C(C)(C)C)cc1 [Compound 12, (2S,4R)-1-((S)-2-(9-(4-(3-Amino-6-(2-hydroxyphenyl)pyridazin-4-yl)piperazin-1-yl)-9-oxononanamido)-3,3-dimethylbutanoyl)-4-hydroxy-N—((S)-1-(4-(4-methylthiazol-5-yl)phenyl)ethyl)pyrrolidine-2-carboxamide] as the compound, how does the “degradation of PBRM1 PB5” value [4] read?
A: potent degradation

Q: Which “degradation of PBRM1 PB5” value [4] does the source give for Nc1nnc(-c2ccccc2O)cc1N1CCN(CCCCCCNC(=O)COc2cccc3c2C(=O)N(C2CCC(=O)NC2=O)C3=O)CC1 (centres unmarked) [Compound 13, N-(6-(4-(3-amino-6-(2-hydroxyphenyl)pyridazin-4-yl)piperazin-1-yl)hexyl)-2-((2-(2,6-dioxopiperidin-3-yl)-1,3-dioxoisoindolin-4-yl)oxy)acetamide] here?
A: potent degradation

Q: What about the hook effect ([4]; high compound concentration) of the same compound?
A: hook effect
